# PMC10747112, “Triphenylphosphine Derivatives of Allylbenzenes Express Antitumor and Adjuvant Activity When Solubilized with Cyclodextrin-Based Formulations” (Pharmaceuticals, 2023)
# Like-named read-outs stand apart in the source and are kept apart here. Marks after values point to notes of the source that are not given here.
# How the values were obtained:
# [1] = tested on: HEK293T cells; experiment: FTIR spectroscopy of HEK293T cells during incubation with drug (penetration/adsorption); assay type: cell-based, human; details: 60 min incubation (apiol-PPh3 in M-β-CD) or pre-incubation (doxorubicin controls); 37 °C
# Excerpt: The main cell structural units that contribute to the absorption of IR diapason can be assigned as follows (Figure 5): lipids of the cell membrane (2800–3000 cm^−1), proteins, especially transmembrane (1500–1700 cm^−1), phosphate groups of DNA (1240 cm^−1) and carbohydrates, including lipopolysaccharides (900–1100 cm^−1). Previously, we developed a technique for tracking the penetration and adsorption of the drug into cells using FTIR spectroscopy: dramatic changes in the intensity of the peaks of amide 1 and amide 2 indicate effective penetration of the drug into cells and vice versa.
# Here, we present the real-time data of FTIR spectroscopy during the incubation of a suspension of HEK293T cells with apiol-PPh3 in M-β-CD (Figure 5). […] There is only a shift of the peak of amide 1 to the low-frequency region (inserts in Figure 5, the normalized intensity is shown) and amide 2 to the high-frequency region with the simultaneous appearance of the shoulder. This indicates the only adsorption of drug molecules on the cell surface, which is also confirmed by a weak increase in the intensity of the peaks at 2850–3000 cm^−1 corresponding to the valence vibrations of the CH2 groups (lipid bilayer). Thus, PPh3 derivatives show only marginal activity against normal cells.
# [2] = tested on: A549 cells; experiment: MTT assay, cytotoxic activity against A549; assay type: cell-based; details: Homo sapiens
# Experimental: Concentrations of the active substance varied from 10^−2 to 10^−4 M. For MTT assay and biological experiments, substances in the concentration range from 10^−3 to 10^−9 M were studied by the dilution of initial ones in a cell growth medium or buffer.
# Adenocarcinomic human alveolar basal epithelial cells A549 cell lines (Manassas, VA, USA) were cultured in RPMI-1640 medium, linear cells of the embryonic kidney human epithelium (HEK293T) were grown in DMEM medium as described earlier. Cell lines were obtained from Lomonosov Moscow State University Depository of Live Systems Collection and Laboratory of Medical Biotechnology, Institute of Biomedical Chemistry (Moscow, Russia).
# (§1) The cytotoxic activity of paclitaxel, Apiol-PPh3 and analogues was determined using an MTT test. Paclitaxel-adjuvant synergism coefficients (SC) were calculated as CV (paclitaxel) × CV (alone adjuvant)/CV (combo paclitaxel + adjuvant), where CV represents the cell viability. The synergy coefficient can be interpreted as strong synergy (SC > 2), synergy (2 > SC > 1.2), indifference/additivity (1.2 > SC > 0.8), antagonism (0.8 > SC > 0.5), and inhibition (SC < 0.5), as described earlier.
# [3] = tested on: A549 cells; experiment: MTT assay, synergy of adjuvants with paclitaxel against A549; assay type: cell-based, human; details: X − M-β-CD, SC = CV(paclitaxel) × CV(adjuvant)/CV(combo)
# Excerpt: Apparently PPh3 derivatives effectively penetrate into cancer cells along a potential gradient, inhibit efflux proteins and mitochondrial enzymes, causing the apoptosis of cancer cells, with IC50 values being lower by two orders of magnitude than the corresponding allylbenzene (Table 3). […] For allylbenzenes, a synergy close to additivity (the cytostatic effect of adjuvant + paclitaxel is almost equal to the sum of their individual contributions) was observed; for PPh3 derivatives, a pronounced increase in the action of paclitaxel is characteristic (the cytostatic effect of adjuvant + paclitaxel is much higher (>) than the sum of their individual contributions). For apiol-PPh3, the most pronounced effect of increasing the activity of paclitaxel was observed (Figure 4b).
# Figure 4 Viability of A549 cells in the presence of paclitaxel and allylbenzenes’ PPh3 derivatives in the form of complexes with M-β-CD (1:5 mol/mol). MTT assay. (a) Dose–effect graphs. (b) MTT assay results for 100 nM paclitaxel alone and combined with allylbenzenes’ PPh3 derivatives in the form of complexes with M-β-CD (1:5 mol/mol).
# as §1
# [4] = tested on: cytochrome P450 3A4; details: read-out: IC50 cytochrome P450 3A4; cited from earlier work
# [5] = Solubility by UV spectroscopy (PBS, with and without M-β-CD); assay type: physicochemical; details: PBS
# Experimental: On the contrary, their complexes with M-β-CD are soluble, and a clear peak in the UV spectrum is pronounced (225 nm). Based on UV spectra data in the presence of M-β-CD, the increase in solubility of apiol-PPh3 and analogues by a second order of magnitude is observed (Table 2).
# The solubility of apiol and apiol-PPh3 (or analogues) in aqueous solution was determined by UV spectroscopy. UV spectra were recorded on the UltraSpec 2100 pro device (AmerSham Biosciences, Cambridge, UK) three times. The substances were dissolved in acetonitrile followed by recording the UV spectra at various cytostatics’ concentrations, and then we plotted calibration dependencies. Next, saturated solutions of substances in water were prepared, and the spectra of the aqueous solutions were recorded. Considering the extinction coefficients in water and acetonitrile to be approximately equal, the solubility was determined.
# [6] = parameters: unit not given here; details: unmodified allylbenzenes; cited from earlier work
# [7] = tested on: cancer cells; parameters: method as in PMID 35128247; details: dillapiol 25–50 µM; cited from earlier work
# [8] = tested on: sea urchin embryos; experiment: Phenotypic sea urchin embryo assay; assay type: in vivo; details: X in M-β-CD
# Excerpt: (§2) Hemolytic activity and thrombogenicity are the primary parameters for evaluating the safety of medical formulations. The phenotypic sea urchin embryo assay developed by colleagues is a visual way to study the toxicity of formulations in vivo. The sea urchin and human genomes contain more than 7000 common genes, including orthologs associated with a number of human diseases. Therefore, sea urchins can be considered as a reliable and versatile model organism for studying the safety of new and existing cytotoxic formulations in vivo. Table 5 presents data on the % of erythrocyte hemolysis, the degree of whole blood thrombosis of apiol-PPh3 and analogues, and data of phenotypic sea urchin embryo assay. Thus, the non-toxicity of PPh3 derivatives of allylbenzenes for normal non-cancer cells, as well as the selectivity of action against cancer cells, is shown. The selectivity of cytotoxic action against cancer cells in comparison with normal cells can be explained by the fact that the PPh3- cation provides selective accumulation and reduction in the mitochondrial membrane potential of the transformed cancer cells. Cyclodextrin (M-β-CD) and heparin are non-toxic (and approved by the FDA for intravenous application).
# Adult sea urchins, Paracentrotus lividus L. (Echinidae), were collected from the Mediterranean Sea on the Cyprus coast and kept in an aerated seawater tank and were used to study the cleavage alteration of Apiol-PPh3 and analogues. Experiments with sea urchin embryos comply with the requirements of biological ethics.
# [9] = tested on: whole blood; experiment: Thrombogenicity (whole blood thrombosis); details: X in M-β-CD; 0.1 mg/mL; relative to control with microscopic glass particles
# Excerpt: as §2
# (§3) The hemolytic activity and thrombogenicity of apiol-PPh3 and analogues were studied using an earlier published technique.
# [10] = tested on: erythrocytes; experiment: Hemolytic activity; assay type: cell-based; details: X in M-β-CD; 0.1 mg/mL; released hemoglobin relative to 0.05% Triton X-100 control
# Excerpt: as §2, §3
# [11] = A549, read-out: −lg (IC50) of X in M-β-CD against A549
# [12] = A549, X in M-β-CD 1:5 mol/mol, MTT, read-out: −lg (IC50) of X in M-β-CD against A549 (converted)
Structure (SMILES),"IC50 [2, 11] [µM]",Synergy Coefficients of Adjuvants and PPh3–Adjuvants with Paclitaxel [3],Solubility in PBS [5] [µM],−lg Kd (X − M-β-CD) [6],"IC50 [2, 12] [µM]",further results
"COc1cccc2c1C(=O)c1c(O)c3c(c(O)c1C2=O)C[C@@](O)(C(=O)CO)C[C@@H]3O[C@H]1C[C@H](N)[C@H](O)[C@H](C)O1 [doxorubicin, reference compound]",,,,,,changes in FTIR amide I and II peak intensity of HEK293T cells (drug penetration) [1]: Dramatic changes in the intensity of the amide 1 and amide 2 peaks
"C=CCc1cc(OC)c2c(c1OC)OCO2 [Apiol, 1-allyl-2,5-dimethoxy-3,4-methylenedioxybenzene]",251,1.3 ± 0.2,130 ± 10,2.6 ± 0.3,,IC50 [4]: 7.9 µM
"C=CCc1cc(OC)c2c(c1)OCO2 [Myristicin, myristicin, reference compound]",,0.9 ± 0.2,,3.5 ± 0.2,1260,"solubility ([5]; aqueous buffer, thermodynamic from solid, read-out: Solubility in PBS): 30 ± 7 µM"
"C=CCc1cc2c(c(OC)c1OC)OCO2 [Dillapiol, dillapiol]",,1.1 ± 0.1,,2.7 ± 0.5,631,effect on cell cycle / apoptosis of cancer cells [7]: induced G0/G1 cell cycle arrest
"C=CCc1cc(OC)c(OC)c(OC)c1OC [Allyltetramethoxybenzene, allyltetramethoxybenzene, reference compound]",316,1.4 ± 0.2,160 ± 20,3.4 ± 0.3,,
"CC(=O)O[C@H]1C(=O)[C@@]2(C)[C@H]([C@H](OC(=O)c3ccccc3)[C@]3(O)C[C@H](OC(=O)[C@H](O)[C@@H](NC(=O)c4ccccc4)c4ccccc4)C(C)=C1C3(C)C)[C@]1(OC(C)=O)CO[C@@H]1C[C@@H]2O [Paclitaxel, paclitaxel, reference compound]",,,,,0.631,Concentration Causing Changes in Sea Urchin Embryos [8]: >4 *** μM; Thrombosis Index [9]: 0.6 ± 0.1%; Hemolysis Index [10]: <0.5 (p = 0.012) %
